# Assay results taken from ChEMBL document CHEMBL4354827, “Discovery of Novel, Potent, Brain-Permeable, and Orally Efficacious Positive Allosteric Modulator of α7 Nicotinic Acetylcholine Receptor [4-(5-(4-Chlorophenyl)-4-methyl-2-propionylthiophen-3-yl)benzenesulfonamide]: Structure-Activity Relationship and Preclinical Characterization” (J Med Chem, 2020).
# Assays:
# [1] = Oral bioavailability in Wistar rat at 10 mg/kg after 0.25 to 144 hrs by LC-MS/MS analysis; format: ADME, organism-based; details: in vivo
# [2] = tested on: Rattus norvegicus; assay: Improvement in social recognition time delay-induced Sprague-Dawley rat model of amnesia assessed as reduction in recognition index at 0.50 mg/kg, po for 7 days and measured on day 9 (reference value: 1.05); format: functional
# [3] = Clearance in Wistar rat at 1 mg/kg, iv after 0.083 to 144 hrs by LC-MS/MS analysis; format: ADME, organism-based; details: in vivo
# [4] = tested on: Rattus norvegicus; assay: Memory enhancement effect in time-delay induced Wistar rat model of amnesia assessed as exploration time for novel object in retention trial at 0.5 mg/kg, po for 7 days and measured on day 8 by novel object recognition test (reference value: 15.37 sec); format: functional
# [5] = tested on: Rattus norvegicus; assay: Improvement in social recognition scopolamine-induced Sprague-Dawley rat model of amnesia assessed as reduction in recognition index at 0.15 mg/kg, po for 7 days measured after 24 hrs (reference value: 0.93); format: functional
# [6] = tested on: Rattus norvegicus; assay: Memory enhancement effect in time-delay induced Wistar rat model of amnesia assessed as exploration time for familiar object at 1 mg/kg, po administered as single dose after acquisition trial by novel object recognition test (reference value: 10.6 sec); format: functional
# [7] = Drug concentration in Wistar rat plasma at 10 mg/kg, po after 48 hrs by LC-MS/MS analysis; format: ADME, organism-based
# [8] = Drug level in scopolamine-induced Sprague-Dawley rat plasma at 0.15 mg/kg, po for 7 days; format: ADME, organism-based
# [9] = tested on: Rattus norvegicus; assay: Memory enhancement effect in scopolamine-induced Wistar rat model of amnesia assessed as increase in exploration time for novel object in retention trial at 0.05 mg/kg, po administered as single dose and measured on day 9 by novel object recognition test (reference value: 12.09 sec); format: functional
# [10] = tested on: Rattus norvegicus; assay: Memory enhancement effect in time-delay induced Wistar rat model of amnesia assessed as increase in novel object discrimination index at 3 mg/kg, po administered as single dose and measured on day 9 by novel object recognition test (reference value: 0.03); format: functional
# [11] = Drug level in Sprague-Dawley rat plasma at 0.05 mg/kg, po for 7 days; format: ADME, organism-based
# [12] = Tmax in BALB/c mouse at 1 mg/kg, iv after 0.083 to 144 hrs by LC-MS/MS analysis; format: ADME, organism-based; details: in vivo
# [13] = tested on: Rattus norvegicus; assay: Memory enhancement effect in time-delay induced Wistar rat model of amnesia assessed as exploration time for familiar object in retention trial at 0.05 mg/kg, po for 7 days and measured on day 8 by novel object recognition test (reference value: 10.20 sec); format: functional
# [14] = Unbound brain-to-plasma concentration ratio in Wistar rat at 10 mg/kg, po after 48 hrs by LC-MS/MS analysis; format: ADME, organism-based; details: read-out: K(p,uu,brain)
# [15] = tested on: Rattus norvegicus; assay: Memory enhancement effect in scopolamine-induced Wistar rat model of amnesia assessed as exploration time for familiar object in retention trial at 0.15 mg/kg, po for 7 days and measured on day 8 by novel object recognition test (reference value: 8.59 sec); format: functional
# [16] = tested on: Rattus norvegicus; assay: Memory enhancement effect in scopolamine-induced Wistar rat model of amnesia assessed as increase in novel object discrimination index at 0.05 mg/kg, po administered as single dose and measured on day 9 by novel object recognition test (reference value: 0.21); format: functional
# [17] = Oral bioavailability in BALB/c mouse at 10 mg/kg after 0.25 to 144 hrs by LC-MS/MS analysis; format: ADME, organism-based; details: in vivo
# [18] = tested on: Rattus norvegicus; assay: Memory enhancement effect in scopolamine-induced Wistar rat model of amnesia assessed as exploration time for object1 in acquisition trial at 0.5 mg/kg, po administered as single dose and measured on day 8 by novel object recognition test (reference value: 16.11 sec); format: functional
# [19] = Volume of distribution at steady state in BALB/c mouse at 1 mg/kg, iv after 0.083 to 144 hrs by LC-MS/MS analysis; format: ADME, organism-based; details: in vivo, read-out: Vdss
# [20] = Drug level in Wistar rat plasma at 0.15 mg/kg, po; format: ADME, organism-based; details: in vivo
# [21] = tested on: Rattus norvegicus; assay: Memory enhancement effect in scopolamine-induced Wistar rat model of amnesia assessed as exploration time for object1 in acquisition trial at 0.15 mg/kg, po administered as single dose and measured on day 8 by novel object recognition test (reference value: 16.11 sec); format: functional
# [22] = Metabolic stability in human pooled liver microsomes assessed as compound remaining at 1 uM preincubated for 5 mins followed by NADPH addition and measured after 30 mins by LC-MS/MS analysis; format: ADME, Microsome; details: read-out: Stability
# [23] = Cmax in BALB/c mouse at 1 mg/kg, iv after 0.083 to 144 hrs by LC-MS/MS analysis; format: ADME, organism-based; set-up: dose 1 mg/kg, route intravenous; details: in vivo
# [24] = tested on: Rattus norvegicus; assay: Memory enhancement effect in scopolamine-induced Wistar rat model of amnesia assessed as exploration time for object1 in acquisition trial at 0.5 mg/kg, po for 7 days and measured on day 8 by novel object recognition test (reference value: 16.11 sec); format: functional
# [25] = tested on: Rattus norvegicus; assay: Memory enhancement effect in time-delay induced Wistar rat model of amnesia assessed as exploration time for object1 in acquisition trial at 1 mg/kg, po administered as single dose and measured on day 8 by novel object recognition test (reference value: 13.95 sec); format: functional
# [26] = biological target: Cytochrome P450 2C19 (Homo sapiens, UniProt P33261); assay: Inhibition of CYP2C19 (unknown origin) up to 10 uM; format: ADME
# [27] = tested on: Rattus norvegicus; assay: Improvement in social recognition time delay-induced Sprague-Dawley rat model of amnesia assessed as increase in reduction in social investigation time at 0.05 mg/kg, po for 7 days measured on day 9 (reference value: -0.5%); format: functional; set-up: scale not given: the % may be the effect or the level left
# [28] = Volume of distribution at steady state in Wistar rat at 1 mg/kg, iv after 0.083 to 144 hrs by LC-MS/MS analysis; format: ADME, organism-based; details: in vivo, read-out: Vdss
# [29] = Tmax in Wistar rat at 10 mg/kg, po after 0.25 to 144 hrs by LC-MS/MS analysis; format: ADME, organism-based; details: in vivo
# [30] = tested on: Rattus norvegicus; assay: Memory enhancement effect in scopolamine-induced Wistar rat model of amnesia assessed as exploration time for familiar object in retention trial at 0.05 mg/kg, po for 7 days and measured on day 8 by novel object recognition test (reference value: 8.59 sec); format: functional
# [31] = tested on: Rattus norvegicus; assay: Memory enhancement effect in scopolamine-induced Wistar rat model of amnesia assessed as exploration time for familiar object in retention trial at 0.5 mg/kg, po administered as single dose and measured on day 9 by novel object recognition test (reference value: 8.59 sec); format: functional
# [32] = tested on: Rattus norvegicus; assay: Memory enhancement effect in time-delay induced Wistar rat model of amnesia assessed as exploration time for familiar object at 3 mg/kg, po administered as single dose after acquisition trial by novel object recognition test (reference value: 10.6 sec); format: functional
# [33] = Brain to plasma permeability coefficient, Kp in Wistar rat at 10 mg/kg, po after 48 hrs by LC-MS/MS analysis; format: ADME, organism-based
# [34] = Drug metabolism in human pooled liver microsomes assessed as metabolic rate at 1 uM preincubated for 5 mins followed by NADPH addition after 30 mins by LC-MS/MS analysis; format: ADME, Microsome; details: 0.5 h
# Sequence of Cytochrome P450 2C19 (P33261 whole entry): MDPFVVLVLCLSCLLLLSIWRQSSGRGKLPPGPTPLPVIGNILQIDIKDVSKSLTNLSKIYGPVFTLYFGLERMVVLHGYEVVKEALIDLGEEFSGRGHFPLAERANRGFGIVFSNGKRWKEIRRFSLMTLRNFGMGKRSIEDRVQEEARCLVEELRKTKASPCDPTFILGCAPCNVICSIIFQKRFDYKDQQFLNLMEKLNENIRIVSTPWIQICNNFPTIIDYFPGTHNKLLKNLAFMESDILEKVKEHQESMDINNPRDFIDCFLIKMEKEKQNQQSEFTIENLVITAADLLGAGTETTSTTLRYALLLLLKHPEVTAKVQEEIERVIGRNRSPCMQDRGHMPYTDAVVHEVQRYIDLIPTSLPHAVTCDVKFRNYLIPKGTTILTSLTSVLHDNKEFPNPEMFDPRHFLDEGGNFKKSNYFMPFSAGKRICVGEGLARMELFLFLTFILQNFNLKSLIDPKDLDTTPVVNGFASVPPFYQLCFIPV
smiles,measurement,setting,value
CCC(=O)c1sc(-c2ccc(Cl)cc2)c(C)c1-c1ccc(S(N)(=O)=O)cc1,bioavailability,[1],74%
same,Activity_index,[2],0.54
same,clearance,[3],1.3 mL/min/kg
same,Time,[4],19.64 s
same,Activity_index,[5],0.44
same,Time,[6],11.94 s
same,concentration at 48 h,[7],620 nM
same,concentration at 168 h,[8],180 nM
same,Time,[9],14.65 s
same,Activity_index,[10],0.48
same,concentration at 168 h,[11],130 nM
same,Tmax,[12],4.8 min
same,Time,[13],7.64 s
same,Kp uu at 48 h,[14],1.15
same,Time,[15],4.86 s
same,Activity_index,[16],0.3
same,bioavailability,[17],57%
same,Time,[18],13.94 s
same,Vd,[19],4 L/kg
same,concentration,[20],70 nM
same,Time,[21],14.08 s
same,"remaining at 0.5 h, 1 µM",[22],90%
same,Cmax,[23],900 nM
same,Time,[24],13.94 s
same,Time,[25],23.61 s
same,inhibition (INH),[26],Not Active
same,Activity,[27],18.97%
same,Vd,[28],4.3 L/kg
same,Tmax,[29],5.2 h
same,Time,[30],8.03 s
same,Time,[31],6.63 s
same,Time,[32],5.9 s
same,Kp at 48 h,[33],9.52
same,Drug metabolism,[34],0.01 nmol/min/mg
